# Measured values reported in US7008953B2, “3, 5 Disubstituted indazole compounds, pharmaceutical compositions, and methods for mediating or inhibiting cell proliferation” (Agouron Pharmaceuticals, Inc., priority 2003, dated 2006).
# Experiments:
# [1] = tested on: AMP-activiated protein kinase (AMPK); experiment: Panel of protein kinases: AMPK; assay type: biochemical; settings: method of Davies et al.
# Protocol: (§1) The compounds of the present invention were screened against a large panel of protein kinase to determine inhibition activity for CDK as against a variety of protein kinases. The assay was conducted using methods and materials described by Davies, S et al. Specificity and Mechanism of Action of Some Commonly Used Protein Kinase Inhibitors, Biochem J. 351, 95–105 (2000), the contents of which are herein incorporated by reference. The compounds were screened against a panel of protein kinases which include AMP-activiated protein kinase (AMPK), checkpoint kinase (CHK1), casein kinases 1 and 2 (CK1 and CK2), cytoplasmic tyrosine kinase (CSK), dual serine/threonine/tyrosine kinase (DYRK1A), glycogen synthase kinase 3 (GSK3B), c-Jun N-terminal kinase (JNK), lymphocyte kinase (LCK), mitogen-activated protein kinases 2, K-1a, K2 (MAPK2, MAPKAP-K1a, and MAPKAP-K2), MAPK kinase (MKK1, also called MEK), mitogen and stress-activated protein kinase 1 (MSK1), never-in-mitosis kinase 6 (NEK6), p70 ribosomal protein S6 kinase (P70s6K1), 3-phosphoinositide-dependent protein kinase 1 (PDK1), phosphorylase kinase (PHK), protein kinase A (PKA), protein kinase B (PKB, also called Akt), protein kinase C (PKCa), p38-regulated/activated kinase (PRAK), Rho-dependent protein kinase (ROCK-II), stress-activated protein kinase 2a, 2b, 3 and 4 (SAPK-2A or p38, SAPK-2b or p38β2, SAPK3 or p38γ, SAPK4 or p38δ, respectively), and serum- and glucocorticoid-induced kinase (SGK). Compound activity was grouped into categories of weak (<50%), moderate (50–75%) and strong inhibition (>75%).
# casein kinase 2 (CK2) = experiment: Panel of protein kinases: CK2; assay type: biochemical; settings: method of Davies et al.
# Protocol: as §1
# [2] = target: protein kinase B (PKB, also called Akt) (Homo sapiens, UniProt P31749); experiment: Panel of protein kinases: PKB; assay type: biochemical; settings: method of Davies et al.
# Sequence of protein kinase B (PKB, also called Akt) (P31749 118-480 limits assumed, species assumed): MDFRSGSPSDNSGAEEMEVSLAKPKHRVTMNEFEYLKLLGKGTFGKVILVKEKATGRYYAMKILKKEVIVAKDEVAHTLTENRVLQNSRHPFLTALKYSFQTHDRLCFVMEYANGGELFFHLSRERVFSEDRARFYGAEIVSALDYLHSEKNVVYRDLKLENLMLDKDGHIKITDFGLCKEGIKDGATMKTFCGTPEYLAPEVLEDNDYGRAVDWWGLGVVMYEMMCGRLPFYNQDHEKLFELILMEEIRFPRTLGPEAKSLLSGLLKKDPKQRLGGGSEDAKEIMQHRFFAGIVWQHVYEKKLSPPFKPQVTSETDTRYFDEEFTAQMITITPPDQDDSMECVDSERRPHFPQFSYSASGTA
# Protocol: as §1
# casein kinase 1 (CK1) = experiment: Panel of protein kinases: CK1; assay type: biochemical; settings: method of Davies et al.
# Protocol: as §1
# HCT 116 cell line = experiment: Inhibition of cell growth, MTT tetrazolium salt assay; assay type: cell-based; settings: Homo sapiens, 50% inhibition of growth
# Protocol: Inhibition of cell growth was measured using the tetrazolium salt assay, which is based on the ability of viable cells to reduce 3-(4,5-dimethylthiazol-2-yl)-2,5-[2H]-diphenyltetrazolium bromide (MTT) to formazan (Mossman, Journal of Immunological Methods, vol. 65 (1983), pp. 55–58). The water-insoluble purple formazan product was then detected spectrophotometrically. The HCT 116 cell line was grown in 96-well plates. Cells were plated in the appropriate medium at a volume of 135 μl/well in McCoy's 5A Medium. Plates were incubated for four hours before addition of inhibitor compounds. Different concentrations of inhibitor compounds were added in 0.5% (v/v) dimethylsulfoxide (15 μL/well), and cells were incubated at 37° C. (5% CO2) for four to six days (depending on cell type). At the end of the incubation, MTT was added to a final concentration of 0.2 mg/mL, and cells were incubated for 4 hours more at 37° C. After centrifugation of the plates and removal of medium, the absorbance of the formazan (solubilized in dimethylsulfoxide) was measured at 540 nm. The concentration of inhibitor compound causing 50% inhibition of growth was determined from the linear portion of a semi-log plot of inhibitor concentration versus percentage inhibition. All results were compared to control cells treated only with 0.5% (v/v) dimethylsulfoxide.
# [3] = target: T1, p38-regulated/activated kinase (PRAK) (Homo sapiens, UniProt Q8IW41); experiment: Panel of protein kinases: PRAK; assay type: biochemical; settings: method of Davies et al.
# T1 sequence (Q8IW41 1-473): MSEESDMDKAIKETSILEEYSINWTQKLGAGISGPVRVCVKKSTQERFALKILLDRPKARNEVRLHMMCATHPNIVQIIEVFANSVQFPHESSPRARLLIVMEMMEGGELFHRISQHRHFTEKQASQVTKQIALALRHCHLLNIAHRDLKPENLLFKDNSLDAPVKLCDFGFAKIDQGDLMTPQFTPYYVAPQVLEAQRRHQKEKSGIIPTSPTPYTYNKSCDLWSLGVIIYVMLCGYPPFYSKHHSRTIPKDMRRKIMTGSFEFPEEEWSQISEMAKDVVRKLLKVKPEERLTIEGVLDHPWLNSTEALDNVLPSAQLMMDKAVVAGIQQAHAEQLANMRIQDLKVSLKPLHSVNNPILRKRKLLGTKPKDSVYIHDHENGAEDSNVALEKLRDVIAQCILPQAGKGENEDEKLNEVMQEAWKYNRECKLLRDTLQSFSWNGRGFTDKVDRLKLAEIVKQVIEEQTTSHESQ
# Protocol: as §1
# [4] = target: never-in-mitosis kinase 6 (NEK6) (Homo sapiens, UniProt Q9HC98); experiment: Panel of protein kinases: NEK6; assay type: biochemical; settings: method of Davies et al.
# Sequence of never-in-mitosis kinase 6 (NEK6) (Q9HC98 whole entry, species assumed): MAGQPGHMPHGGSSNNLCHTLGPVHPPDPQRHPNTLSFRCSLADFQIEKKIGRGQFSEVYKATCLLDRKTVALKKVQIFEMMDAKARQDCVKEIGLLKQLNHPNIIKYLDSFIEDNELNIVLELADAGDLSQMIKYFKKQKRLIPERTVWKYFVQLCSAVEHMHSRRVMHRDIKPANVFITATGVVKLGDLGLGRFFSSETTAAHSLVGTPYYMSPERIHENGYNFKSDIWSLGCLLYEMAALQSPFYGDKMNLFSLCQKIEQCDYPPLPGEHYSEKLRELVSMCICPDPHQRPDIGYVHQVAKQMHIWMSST
# Protocol: as §1
# [5] = tested on: p70 ribosomal protein S6 kinase (P70s6K1); experiment: Panel of protein kinases: P70s6K1; assay type: biochemical; settings: method of Davies et al.
# Protocol: as §1
# [6] = target: MAPK kinase (MKK1, also called MEK) (Homo sapiens, UniProt Q02750); experiment: Panel of protein kinases: MKK1; assay type: biochemical; settings: method of Davies et al.
# Sequence of MAPK kinase (MKK1, also called MEK) (Q02750 whole entry): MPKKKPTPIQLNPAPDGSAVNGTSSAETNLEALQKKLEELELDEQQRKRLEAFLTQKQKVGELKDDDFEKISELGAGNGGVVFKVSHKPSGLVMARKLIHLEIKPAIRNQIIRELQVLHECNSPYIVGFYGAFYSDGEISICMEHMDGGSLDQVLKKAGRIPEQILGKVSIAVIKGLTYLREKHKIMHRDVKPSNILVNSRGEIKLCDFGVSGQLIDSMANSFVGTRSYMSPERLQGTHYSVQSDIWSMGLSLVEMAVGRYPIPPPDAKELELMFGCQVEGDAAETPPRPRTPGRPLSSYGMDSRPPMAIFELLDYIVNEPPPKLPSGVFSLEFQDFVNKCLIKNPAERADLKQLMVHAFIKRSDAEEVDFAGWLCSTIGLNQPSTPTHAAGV
# Protocol: as §1
# [7] = tested on: Rho-dependent protein kinase (ROCK-II); experiment: Panel of protein kinases: ROCK-II; assay type: biochemical; settings: method of Davies et al.
# Protocol: as §1
smiles,measurement,setting,value
CCNCc1cncc(-c2ccc3[nH]nc(-c4nc5c(NC(C)=O)cccc5[nH]4)c3c2)c1C [D],Kinase AMPK inhibition,[1],++ (Strong inhibition >75%)
same,Kinase CK2 inhibition,casein kinase 2 (CK2),− (Weak inhibition <50%)
same,Kinase PKB inhibition,[2],− (Weak inhibition <50%)
same,Kinase CK1 inhibition,casein kinase 1 (CK1),− (Weak inhibition <50%)
same,IC50,HCT 116 cell line,> 500 nM
same,Kinase PRAK inhibition,[3],+ (Moderate inhibition 50–75%)
same,Kinase NEK6 inhibition,[4],− (Weak inhibition <50%)
same,Kinase P70s6K1 inhibition,[5],− (Weak inhibition <50%)
same,Kinase MKK1 inhibition,[6],+ (Moderate inhibition 50–75%)
same,Kinase ROCK-II inhibition,[7],− (Weak inhibition <50%)
CCNCc1cncc(-c2ccc3[nH]nc(-c4nc5c(SC)cccc5[nH]4)c3c2)c1C [C],Kinase AMPK inhibition,[1],++ (Strong inhibition >75%)
same,Kinase CK2 inhibition,casein kinase 2 (CK2),− (Weak inhibition <50%)
same,Kinase PKB inhibition,[2],− (Weak inhibition <50%)
same,Kinase CK1 inhibition,casein kinase 1 (CK1),− (Weak inhibition <50%)
same,IC50,HCT 116 cell line,86 nM
same,Kinase PRAK inhibition,[3],++ (Strong inhibition >75%)
same,Kinase NEK6 inhibition,[4],− (Weak inhibition <50%)
same,Kinase P70s6K1 inhibition,[5],− (Weak inhibition <50%)
same,Kinase MKK1 inhibition,[6],+ (Moderate inhibition 50–75%)
same,Kinase ROCK-II inhibition,[7],+ (Moderate inhibition 50–75%)
CCNCc1cncc(-c2ccc3[nH]nc(-c4nc5c(C(=O)NC)cccc5[nH]4)c3c2)c1C [B],Kinase AMPK inhibition,[1],++ (Strong inhibition >75%)
same,Kinase CK2 inhibition,casein kinase 2 (CK2),− (Weak inhibition <50%)
same,Kinase PKB inhibition,[2],− (Weak inhibition <50%)
same,Kinase CK1 inhibition,casein kinase 1 (CK1),− (Weak inhibition <50%)
same,IC50,HCT 116 cell line,90 nM
same,Kinase PRAK inhibition,[3],+ (Moderate inhibition 50–75%)
same,Kinase NEK6 inhibition,[4],− (Weak inhibition <50%)
same,Kinase P70s6K1 inhibition,[5],+ (Moderate inhibition 50–75%)
same,Kinase MKK1 inhibition,[6],+ (Moderate inhibition 50–75%)
same,Kinase ROCK-II inhibition,[7],+ (Moderate inhibition 50–75%)
"CCNCc1cncc(-c2ccc3[nH]nc(-c4nc5cc(F)ccc5[nH]4)c3c2)c1C [Example 2, Ethyl-{5-[3-(5-fluoro-1H-benzoimidazol-2-yl)-1H-indazol-5-yl]-4-methyl-pyridin-3-ylmethyl}-amine]",Kinase PKB inhibition,[2],− (Weak inhibition <50%)
same,IC50,HCT 116 cell line,22 nM
same,Kinase PRAK inhibition,[3],− (Weak inhibition <50%)
same,Kinase NEK6 inhibition,[4],− (Weak inhibition <50%)
same,Kinase MKK1 inhibition,[6],− (Weak inhibition <50%)
"CCNCc1cncc(-c2ccc3[nH]nc(-c4nc5c(F)cc(F)cc5[nH]4)c3c2)c1C [Example 1, {5-[3-(4,6-Difluoro-1H-benzoimidazol-2-yl)-1H-indazol-5-yl]-4-methyl-pyridin-3-ylmethyl}-ethyl-amine]",Kinase AMPK inhibition,[1],++ (Strong inhibition >75%)
same,Kinase CK2 inhibition,casein kinase 2 (CK2),− (Weak inhibition <50%)
same,Kinase PKB inhibition,[2],− (Weak inhibition <50%)
same,Kinase CK1 inhibition,casein kinase 1 (CK1),− (Weak inhibition <50%)
same,IC50,HCT 116 cell line,120 nM
same,Kinase PRAK inhibition,[3],− (Weak inhibition <50%)
same,Kinase NEK6 inhibition,[4],− (Weak inhibition <50%)
same,Kinase P70s6K1 inhibition,[5],− (Weak inhibition <50%)
same,Kinase MKK1 inhibition,[6],− (Weak inhibition <50%)
same,Kinase ROCK-II inhibition,[7],− (Weak inhibition <50%)
CCNCc1cncc(-c2ccc3[nH]nc(-c4nc5ccccc5[nH]4)c3c2)c1C [A],Kinase AMPK inhibition,[1],++ (Strong inhibition >75%)
same,Kinase CK2 inhibition,casein kinase 2 (CK2),− (Weak inhibition <50%)
same,Kinase PKB inhibition,[2],− (Weak inhibition <50%)
same,Kinase CK1 inhibition,casein kinase 1 (CK1),− (Weak inhibition <50%)
same,IC50,HCT 116 cell line,70 nM
same,Kinase PRAK inhibition,[3],++ (Strong inhibition >75%)
same,Kinase NEK6 inhibition,[4],− (Weak inhibition <50%)
same,Kinase P70s6K1 inhibition,[5],+ (Moderate inhibition 50–75%)
same,Kinase MKK1 inhibition,[6],++ (Strong inhibition >75%)
same,Kinase ROCK-II inhibition,[7],++ (Strong inhibition >75%)
